Experimental data reported in PubChem BioAssay (NCI).
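Where inhibition never reached the appropriate level, the endpoint shown equals the highest concentration tested. Otherwise, values were interpolated linearly from a five-concentration, 48-hour dose response in 96-well plates. At the TGI there is no net growth.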

Tests used:
Test in all cases: growth of human tumour cells (NCI), 48 h
SNB-19 CNS = tested on: SNB-19 CNS
CCRF-CEM leukemia = tested on: CCRF-CEM leukemia
RXF 393 renal = tested on: RXF 393 renal
KM20L2 colon = tested on: KM20L2 colon
RPMI-8226 leukemia = tested on: RPMI-8226 leukemia
UACC-62 melanoma = tested on: UACC-62 melanoma
SW-620 colon = tested on: SW-620 colon
OVCAR-3 ovarian = tested on: OVCAR-3 ovarian
COLO 205 colon = tested on: COLO 205 colon
KM12 colon = tested on: KM12 colon
HOP-18 NSCLC = tested on: HOP-18 NSCLC
A498 renal = tested on: A498 renal
SF-539 CNS = tested on: SF-539 CNS
HT29 colon = tested on: HT29 colon
ACHN renal = tested on: ACHN renal
NCI-H460 lung = tested on: NCI-H460 lung
K-562 leukemia = tested on: K-562 leukemia
HOP-92 NSCLC = tested on: HOP-92 NSCLC
SR leukemia = tested on: SR leukemia
SN12C renal = tested on: SN12C renal
MOLT-4 leukemia = tested on: MOLT-4 leukemia
MALME-3M melanoma = tested on: MALME-3M melanoma
SK-OV-3 ovarian = tested on: SK-OV-3 ovarian
SNB-75 CNS = tested on: SNB-75 CNS
A549 NSCLC = tested on: A549 NSCLC
HCC-2998 colon = tested on: HCC-2998 colon
NCI-H23 lung = tested on: NCI-H23 lung
HCT-116 colon = tested on: HCT-116 colon
LXFL 529 NSCLC = tested on: LXFL 529 NSCLC
HCT-15 colon = tested on: HCT-15 colon
UO-31 renal = tested on: UO-31 renal
XF 498 CNS = tested on: XF 498 CNS
OVCAR-5 ovarian = tested on: OVCAR-5 ovarian
SK-MEL-5 melanoma = tested on: SK-MEL-5 melanoma
DLD-1 colon = tested on: DLD-1 colon
OVCAR-4 ovarian = tested on: OVCAR-4 ovarian
OVCAR-8 ovarian = tested on: OVCAR-8 ovarian
786-0 renal = tested on: 786-0 renal
LOX IMVI melanoma = tested on: LOX IMVI melanoma
M19-MEL melanoma = tested on: M19-MEL melanoma
NCI-H522 lung = tested on: NCI-H522 lung
SK-MEL-28 melanoma = tested on: SK-MEL-28 melanoma
HL-60(TB) leukemia = tested on: HL-60(TB) leukemia
CAKI-1 renal = tested on: CAKI-1 renal
SF-295 CNS = tested on: SF-295 CNS
IGROV1 ovarian = tested on: IGROV1 ovarian
U251 CNS = tested on: U251 CNS
M14 melanoma = tested on: M14 melanoma
SK-MEL-2 melanoma = tested on: SK-MEL-2 melanoma
TK-10 renal = tested on: TK-10 renal
DU-145 prostate = tested on: DU-145 prostate
SF-268 CNS = tested on: SF-268 CNS
NCI-H226 lung = tested on: NCI-H226 lung
UACC-257 melanoma = tested on: UACC-257 melanoma
DMS 273 small cell lung = tested on: DMS 273 small cell lung
DMS 114 small cell lung = tested on: DMS 114 small cell lung
EKVX NSCLC = tested on: EKVX NSCLC
SNB-78 CNS = tested on: SNB-78 CNS

Structure (SMILES): COC(=O)C1=C(C(=O)OC)C23CC4CCC2(C(=O)C1O3)C4(C)C (centres undefined)
- TGI (SNB-19 CNS): > 100 µM
- TGI (CCRF-CEM leukemia): 66.7 µM
- TGI (RXF 393 renal): > 100 µM
- TGI (KM20L2 colon): > 100 µM
- TGI (RPMI-8226 leukemia): > 100 µM
- TGI (UACC-62 melanoma): > 100 µM
- TGI (SW-620 colon): > 100 µM
- TGI (OVCAR-3 ovarian): > 100 µM
- TGI (COLO 205 colon): > 100 µM
- TGI (KM12 colon): > 100 µM
- TGI (HOP-18 NSCLC): > 100 µM
- TGI (A498 renal): > 100 µM
- TGI (SF-539 CNS): > 100 µM
- TGI (HT29 colon): > 100 µM
- TGI (ACHN renal): > 100 µM
- TGI (NCI-H460 lung): > 100 µM
- TGI (K-562 leukemia): > 100 µM
- TGI (HOP-92 NSCLC): > 100 µM
- TGI (SR leukemia): > 100 µM
- TGI (SN12C renal): > 100 µM
- TGI (MOLT-4 leukemia): > 100 µM
- TGI (MALME-3M melanoma): > 100 µM
- TGI (SK-OV-3 ovarian): > 100 µM
- TGI (SNB-75 CNS): > 100 µM
- TGI (A549 NSCLC): > 100 µM
- TGI (HCC-2998 colon): > 100 µM
- TGI (NCI-H23 lung): > 100 µM
- TGI (HCT-116 colon): > 100 µM
- TGI (LXFL 529 NSCLC): > 100 µM
- TGI (HCT-15 colon): > 100 µM
- TGI (UO-31 renal): > 100 µM
- TGI (XF 498 CNS): > 100 µM
- TGI (OVCAR-5 ovarian): > 100 µM
- TGI (SK-MEL-5 melanoma): > 100 µM
- TGI (DLD-1 colon): > 100 µM
- TGI (OVCAR-4 ovarian): > 100 µM
- TGI (OVCAR-8 ovarian): > 100 µM
- TGI (786-0 renal): > 100 µM
- TGI (LOX IMVI melanoma): > 100 µM
- TGI (M19-MEL melanoma): > 100 µM
- TGI (NCI-H522 lung): 48.8 µM
- TGI (SK-MEL-28 melanoma): > 100 µM
- TGI (HL-60(TB) leukemia): 52.6 µM
- TGI (CAKI-1 renal): > 100 µM
- TGI (SF-295 CNS): > 100 µM
- TGI (IGROV1 ovarian): > 100 µM
- TGI (U251 CNS): > 100 µM
- TGI (M14 melanoma): > 100 µM
- TGI (SK-MEL-2 melanoma): > 100 µM
- TGI (TK-10 renal): > 100 µM
- TGI (DU-145 prostate): > 100 µM
- TGI (SF-268 CNS): > 100 µM
- TGI (NCI-H226 lung): > 100 µM
- TGI (UACC-257 melanoma): > 100 µM

Structure (SMILES): O=C1/C(=C/c2cc(O)c(O)c(O)c2)Oc2cc(O)cc(OC3OC(CO)C(O)C(O)C3O)c21 (centres undefined)
- TGI (SNB-19 CNS): > 100 µM
- TGI (CCRF-CEM leukemia): 44.5 µM
- TGI (KM20L2 colon): 74 µM
- TGI (RPMI-8226 leukemia): 67.9 µM
- TGI (UACC-62 melanoma): 38.8 µM
- TGI (SW-620 colon): 58.3 µM
- TGI (DMS 273 small cell lung): 3.67 µM
- TGI (OVCAR-3 ovarian): 31.4 µM
- TGI (COLO 205 colon): 54.1 µM
- TGI (KM12 colon): > 100 µM
- TGI (HOP-18 NSCLC): > 100 µM
- TGI (A498 renal): > 100 µM
- TGI (SF-539 CNS): > 100 µM
- TGI (HT29 colon): 59.5 µM
- TGI (ACHN renal): 25.7 µM
- TGI (NCI-H460 lung): 34 µM
- TGI (K-562 leukemia): 34.9 µM
- TGI (HOP-92 NSCLC): 38.7 µM
- TGI (SN12C renal): 33 µM
- TGI (MOLT-4 leukemia): 43.4 µM
- TGI (SK-OV-3 ovarian): > 100 µM
- TGI (SNB-75 CNS): > 100 µM
- TGI (A549 NSCLC): > 100 µM
- TGI (HCC-2998 colon): > 100 µM
- TGI (DMS 114 small cell lung): > 100 µM
- TGI (NCI-H23 lung): 80.9 µM
- TGI (HCT-116 colon): 31.1 µM
- TGI (LXFL 529 NSCLC): 28 µM
- TGI (HCT-15 colon): 57.5 µM
- TGI (UO-31 renal): > 100 µM
- TGI (SK-MEL-5 melanoma): 31 µM
- TGI (DLD-1 colon): 42.4 µM
- TGI (OVCAR-4 ovarian): 6.49 µM
- TGI (EKVX NSCLC): > 100 µM
- TGI (OVCAR-8 ovarian): 35.7 µM
- TGI (786-0 renal): > 100 µM
- TGI (M19-MEL melanoma): 37.1 µM
- TGI (SK-MEL-28 melanoma): > 100 µM
- TGI (HL-60(TB) leukemia): 43.1 µM
- TGI (SNB-78 CNS): 68.5 µM
- TGI (SF-295 CNS): 34.3 µM
- TGI (IGROV1 ovarian): > 100 µM
- TGI (M14 melanoma): 50.4 µM
- TGI (SK-MEL-2 melanoma): 47.7 µM
- TGI (TK-10 renal): > 100 µM
